The record followed here is ChEMBL document CHEMBL1201862, “PubChem BioAssay data set” (2004).

Among the test systems are HCT-15; EKVX; BT-549; MOLT-4; UACC-62; SF-268; SNB-19; OVCAR-3; COLO 205; NCI/ADR-RES; HL-60; SR; UO-31; SF-539; MDA-MB-435; Malme-3M; OVCAR-4; CCRF-CEM; MDA-N.
Common to all, as to experiment: NCI-60 cell line screen, 48 h

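Each compound was tested at five concentrations against cells in 96-well plates for 48 hours. At the GI50, growth is halved.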 Activity calls are given as the source filed them. No stated cut-off is given here; in the data, active = GI50 up to about 1.1 µM and inactive = higher. A value given as a limit tells only on which side of the number the result lay.

For `COc1cc(O)ccc1C(=S)SC`, the GI50 in the test on HCT-15 is 40.8 µM; in the test on EKVX, 11.4 µM (inactive); with BT-549 it was > 100 µM (inactive); in the test on MOLT-4 it was 20.8 µM (inactive); in the test on UACC-62 it was 28.3 µM (inactive); in the test on SF-268, 67.1 µM (inactive). In addition, the GI50 is 78.2 µM (inactive) with SNB-19; 62.4 µM (inactive) in the test on OVCAR-3; > 100 µM (inactive) with COLO 205; 38.9 µM (inactive) with NCI/ADR-RES; 23.6 µM (inactive) in the test with HL-60; 43.2 µM (inactive) with SR. In addition, the GI50 is 51.6 µM (inactive) in the test with UO-31; 76.2 µM (inactive) in the test with SF-539; 68.5 µM (inactive) with MDA-MB-435; 39.2 µM (inactive) in the test with Malme-3M; 52 µM (inactive) in the test on OVCAR-4.

As for `O=C1/C(=C/C=C/c2ccccc2)N=C(c2ccccc2)N1C1Nc2cc3c(cc2S1)NC(N1C(=O)/C(=C/C=C/c2ccccc2)N=C1c1ccccc1)S3` (stereo not given), the GI50 was 40.9 µM in the test on HCT-15; > 100 µM (inactive) in the test on EKVX; 0.0117 µM (active) with MOLT-4; 43.9 µM (inactive) with CCRF-CEM; 9.68 µM (inactive) in the test with SF-268; 46.9 µM (inactive) in the test with OVCAR-3. In addition, the GI50 with NCI/ADR-RES is 67.9 µM (inactive); in the test with HL-60, 29.1 µM (inactive); in the test with SR, < 0.01 µM (active); in the test with UO-31, 28.1 µM (inactive); in the test on SF-539 it was > 100 µM (inactive); in the test with MDA-MB-435, 31.9 µM (inactive). Besides, the GI50 with OVCAR-4 was 73.8 µM (inactive).

In the case of `CC(=O)SSC1(Cl)C(C)(C)C(Cl)(SSC(C)=O)C1(C)C` (stereo not given), the GI50 is 34.7 µM with HCT-15; 39.9 µM (inactive) in the test on EKVX; > 100 µM (inactive) with BT-549; 65 µM (inactive) in the test on MDA-N; 24 µM (inactive) in the test with CCRF-CEM; 52.6 µM (inactive) with UACC-62. Moreover, the GI50 in the test on SF-268 was 43.6 µM (inactive); in the test on SNB-19 it was 35 µM (inactive); with OVCAR-3, 61.4 µM (inactive); in the test on COLO 205, > 100 µM (inactive); with NCI/ADR-RES, 40.2 µM (inactive); in the test on UO-31, 94.8 µM (inactive). Further, the GI50 with SF-539 was 24.5 µM (inactive); in the test on MDA-MB-435, 49.1 µM (inactive); in the test on Malme-3M, 84.5 µM (inactive); with OVCAR-4, 48.1 µM (inactive).

On to `COC(=O)[C@@H]1OC(C)(c2ccccc2)O[C@H]1C(=O)OC`, for which the GI50 with HCT-15 was greater than 100 µM; with EKVX, > 100 µM (inactive); in the test with MDA-N, > 100 µM (inactive); with MOLT-4 it was > 100 µM (inactive); in the test on CCRF-CEM, 48.1 µM (inactive); in the test with UACC-62, > 100 µM (inactive). In addition, the GI50 in the test with SF-268 is > 100 µM (inactive); with SNB-19, > 100 µM (inactive); in the test with OVCAR-3 it was > 100 µM (inactive); with COLO 205, > 100 µM (inactive); in the test on NCI/ADR-RES it was > 100 µM (inactive); in the test with HL-60 it was 4.52 µM (inactive). In addition, the GI50 in the test on SR, in the test with UO-31, in the test on SF-539, in the test on MDA-MB-435, in the test with Malme-3M and in the test with OVCAR-4 was > 100 µM (inactive) in each case.

For `C[C@]12CCC3c4ccc(O)cc4CC[C@H]3C1CC(=O)N(N)C2=O` (stereo not given in full), the GI50 in the test on EKVX is 64.7 µM (inactive); in the test with BT-549, > 100 µM (inactive); with MDA-N, > 100 µM (inactive); in the test on MOLT-4, > 100 µM (inactive); in the test on CCRF-CEM, > 100 µM (inactive); in the test with UACC-62 it was > 100 µM (inactive). Besides, the GI50 in the test with SF-268, in the test with SNB-19, with OVCAR-3, in the test on COLO 205, in the test on HL-60 and in the test on SR was > 100 µM (inactive) throughout. For the same compound, the GI50 in the test with UO-31, in the test on SF-539, in the test on MDA-MB-435, in the test on Malme-3M and with OVCAR-4 was > 100 µM (inactive) in each case.

On to `C=C1CCC2C(C)(CO)C(O)CCC2(C)C1C/C=C1/CCOC1=O` (stereo not given), for which the GI50 in the test on HCT-15 was greater than 100 µM; in the test with EKVX it was > 100 µM (inactive); in the test with MOLT-4, > 100 µM (inactive); with CCRF-CEM, > 100 µM (inactive); in the test with UACC-62, > 100 µM (inactive); in the test with SNB-19, > 100 µM (inactive). The GI50 with OVCAR-3, in the test with COLO 205, with HL-60, in the test on SR, in the test with UO-31 and with SF-539 was > 100 µM (inactive) in each case. The GI50 in the test on Malme-3M and in the test with OVCAR-4 was > 100 µM (inactive) each time.

In the case of `NC(=O)C12CCC1C1CCCCC12N1CCOCC1` (stereo not given), the GI50 in the test on HCT-15 is greater than 100 µM; in the test on EKVX, > 100 µM (inactive); in the test with MOLT-4, > 100 µM (inactive); in the test with CCRF-CEM, > 100 µM (inactive); in the test on UACC-62 it was > 100 µM (inactive); in the test with SF-268 it was > 100 µM (inactive). For the same compound, the GI50 with SNB-19, with OVCAR-3, in the test on HL-60, with SR, in the test with UO-31 and with SF-539 was > 100 µM (inactive) throughout. Besides, the GI50 in the test with Malme-3M and with OVCAR-4 was > 100 µM (inactive) in each case.

On to `Oc1c(Cl)c(Cl)c(O)c(-c2cnc(-c3ncc(-c4c(O)c(Cl)c(Cl)c(O)c4Cl)s3)s2)c1Cl`, for which the GI50 with HCT-15 is 13.6 µM; in the test with EKVX, 21.2 µM (inactive); in the test with MOLT-4 it was > 100 µM (inactive); with CCRF-CEM, 8.53 µM (inactive); in the test with UACC-62, 19.7 µM (inactive); in the test on SF-268 it was 22 µM (inactive). Further, the GI50 is 27.9 µM (inactive) with SNB-19; 21.4 µM (inactive) with OVCAR-3; 28.6 µM (inactive) in the test on COLO 205; 25.3 µM (inactive) with NCI/ADR-RES; 33.3 µM (inactive) in the test on HL-60; 35.6 µM (inactive) in the test with SR. Moreover, the GI50 in the test on UO-31 was 21.1 µM (inactive); with SF-539 it was 24.3 µM (inactive); in the test on MDA-MB-435, 21.9 µM (inactive); in the test on Malme-3M, 29.4 µM (inactive); in the test with OVCAR-4, 80.5 µM (inactive).

As to `CCCCCCCCCCCCCCC(C)CCC(=O)O` (stereo not given), the GI50 is > 100 µM (inactive) in the test on EKVX; 78.9 µM (inactive) in the test with UACC-62; > 100 µM (inactive) in the test on SF-268; > 100 µM (inactive) in the test with SNB-19; 68.7 µM (inactive) in the test on OVCAR-3; 44 µM (inactive) in the test with COLO 205. Besides, the values for the GI50 with SF-539, in the test with Malme-3M and in the test on OVCAR-4 were 48.9 µM (inactive), > 100 µM (inactive) and > 100 µM (inactive), respectively.

For `CC(C)(C)[Si](C)(C)OCC1OC(n2cnc3c(=O)[nH]cnc32)CC1O` (stereo not given), the GI50 in the test with HCT-15 is greater than 100 µM; in the test on EKVX, > 100 µM (inactive); in the test with MDA-N, > 100 µM (inactive); in the test with MOLT-4, > 100 µM (inactive); in the test with CCRF-CEM, > 100 µM (inactive); with UACC-62, > 100 µM (inactive). The GI50 in the test on SF-268, with SNB-19, with OVCAR-3, in the test with COLO 205, in the test with NCI/ADR-RES and in the test on HL-60 was > 100 µM (inactive) each time. Further, the GI50 in the test with SR, in the test with UO-31, in the test with SF-539, in the test with MDA-MB-435, with Malme-3M and in the test on OVCAR-4 was > 100 µM (inactive) throughout.

For the compound `COC(=O)c1c2c(cc3c1CC1(Cc4cc5c(cc4C1=O)CCC5)C3)CCC2` (stereo not given), the GI50 with HCT-15 is 42.7 µM; in the test on EKVX, 56.1 µM (inactive); with BT-549 it was 64.6 µM (inactive); in the test on MDA-N, 20.4 µM (inactive); in the test on MOLT-4, 5.47 µM (inactive); in the test on CCRF-CEM it was 11 µM (inactive). In addition, the GI50 in the test on UACC-62 is 39.1 µM (inactive); with SF-268 it was 85.9 µM (inactive); in the test with SNB-19 it was > 100 µM (inactive); in the test on OVCAR-3 it was 72.9 µM (inactive); in the test with COLO 205 it was 79.3 µM (inactive); in the test with HL-60, > 100 µM (inactive). Also, the GI50 is > 10 µM (inactive) with SR; > 100 µM (inactive) in the test on UO-31; 97.7 µM (inactive) in the test on SF-539; 28.1 µM (inactive) in the test on MDA-MB-435; 32.9 µM (inactive) in the test with Malme-3M; 34.3 µM (inactive) with OVCAR-4.

In the case of `C/C(=N\c1cccc(Cl)c1)c1ccncc1`, the GI50 in the test with HCT-15 was greater than 100 µM; in the test with EKVX, > 100 µM (inactive); in the test on BT-549 it was > 100 µM (inactive); in the test with MDA-N, > 100 µM (inactive); with MOLT-4 it was > 100 µM (inactive); in the test with CCRF-CEM, > 100 µM (inactive). Also, the GI50 was 28.3 µM (inactive) in the test on UACC-62; 14.6 µM (inactive) in the test on SF-268; > 100 µM (inactive) in the test with SNB-19; > 100 µM (inactive) with OVCAR-3; > 100 µM (inactive) in the test with COLO 205; > 100 µM (inactive) in the test with NCI/ADR-RES. For the same compound, the GI50 with UO-31, in the test on SF-539, in the test with MDA-MB-435, in the test on Malme-3M and in the test with OVCAR-4 was > 100 µM (inactive) throughout.

Regarding `C[N+](C)(C)CC1CCCC(C[N+](C)(C)C)C1=NO` (stereo not given), the GI50 in the test on HCT-15 was greater than 100 µM; with EKVX it was > 100 µM (inactive); with MOLT-4, > 100 µM (inactive); in the test on UACC-62, > 100 µM (inactive); in the test on SNB-19, > 100 µM (inactive); in the test with OVCAR-3, > 100 µM (inactive). Besides, the GI50 with COLO 205, in the test with SR, in the test with UO-31, in the test with SF-539, in the test with Malme-3M and with OVCAR-4 was > 100 µM (inactive) throughout.
